Laboratory results as given in PMC11134387, “Cancer-Stem-Cell Phenotype-Guided Discovery of a Microbiota-Inspired Synthetic Compound Targeting NPM1 for Leukemia” (JACS Au, 2024).

Legend:
NPM1 C-end C+ = target: T1, NPM1 C-end C+ (Homo sapiens, UniProt P06748); test: Isothermal titration calorimetry, NPM1 C-end C+; type: binding; conditions: ITC
T1 construct: the C-end domain (residues 225- 294); 6xHis (N); made in house; host or cells: E. coli BL21(DE3)
Description: To confirm a direct interaction of UCM-13369 with NPM1 and to address which domain of the protein would be responsible for binding the compound, pure protein samples of the pentameric N-end domain of NPM1, along with the C-terminal DNA-binding domains of WT and mutant NPM1 C+, were used in calorimetry assays. […] This is indicative of a lower diversity in the chemical environment of amide protons consistent with the previously reported protein unfolding.[29] […] On the other hand, the pentameric construct of the NPM1 N-end, which lacks the AML-related region, yielded a much lower binding affinity (KD ca. 100 μM range, Figure 3D).
ITC experiments were performed in a Nano ITC Low Volume (TA Instruments) at 25 °C. […]
The purity of the protein samples was checked by SDS–PAGE analysis (Figure S3) and protein quantification was performed using the Bradford protein assay.5 NPM molar concentration was expressed as the pentameric form for NPM1 WT N-end and as a monomer for NPM1 C-end WT and mutant. […]
After extraction with acetonitrile and acidification, samples were desalted and concentrated with C18 tips. Mass spectra were recorded in a Hybrid Quadrupole-Orbitrap™ Mass Spectrometer (Thermo Scientific, Waltham, Massachusetts, USA)

NPM1 = test: Western blot of NPM1 in OCI-AML3 cells; type: cell-based; conditions: for Densitometry values for NPM1: reduction: OCI-AML3, 10 μM
Description: We next studied the impact of UCM-13369 in the genes and/or expression levels of NPM1 and NPM1 C+ pathway components (Figure 4A), including the positive regulation of c-Myc[34] and the negative regulation of FBXW7 and the pro-apoptotic CASP8.[35] […] The inhibition of NPM1 was also observed in MOLM13 cells expressing WT NPM1 (Figure S1B).
Assay (Bio-Rad Labo rato ries, Hercules, CA, USA) and 20 µg of total protein s was loaded onto 10% SDS-PAGE gels followed by transfer onto a nitrocellulose membrane. Blots were incubated with primary antibodies α-NPM1 (Abcam ), α-M YC (Cel l Signaling), α-FBXW7 ( Abcam) and an ti-mouse or anti-rabbit secondary antibodies (BD). An antibody to β-actin was used to check for equivalent protei n loading. Membranes were developed by enhanced chemiluminescenc e (Clarity Weste rn ECL substrate; Bio-Rad Laboratories ).
Densitometry was performed with Image Lab software, normalized to the signal of β-actin, and r-normalized with the control.
Proteomic analysis. A supplementary table (Excel file) includes all the data of the proteomic analysis, showing all the proteins identified, not only those ablated in the treated population, but also those found with different expression levels in both populations under study, and even those that were not detected in the control population but were detected in the treated population. Follows the image of a Venn diagram showing the number of proteins detected in each of the pop ulations and the proteins that converg e […]
2.3. NPM1 protein studies
DNA constructs. For recombinant expression, pET28a(+) vectors encoding the native, N-end pentameric domain (residues 1- 130) and the C-end domain (residues 225- 294) constructs of NPM1 –all of which contained a N -terminal 6xHis tag– were available at the lab.4 Site directed mutagenesis was p erfo rmed by polymerase chain reaction (PCR) using the pET28a-NPM1 C-end WT vector to obtain the NPM1 C-end AML mutant construct (NPM1 C-end C+). The following primers were designed: 5’ – […]
(1 picture or pasted object on this page, not shown here)

T1 sequence (P06748 with tags, fused parts or gaps limits assumed): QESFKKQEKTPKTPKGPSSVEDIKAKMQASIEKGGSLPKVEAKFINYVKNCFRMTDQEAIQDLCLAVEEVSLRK

COc1ccc(C2Cc3[nH]c4ccccc4c3C(CCNCC3CC3)C2N)cc1 (centres unmarked) [4b, 4-{2-[(Cyclopropylmethyl)amino]ethyl}-2-(4-methoxyphenyl)-2,3,4,9-tetrahydro-1H-carbazol-3-amine]
Kd (NPM1 C-end C+; 25 °C, NPM1 C-end C+): 15 µM
Higher affinity of NPM1 C-end C+ than WT domain (NPM1 C-end C+; C+ variant vs WT domain): 2 fold
Densitometry values for NPM1: reduction (NPM1; 24 h): 50%
Densitometry values for NPM1: reduction (NPM1; 48 h): 70%
NPM1 levels (in words) (NPM1; OCI-AML3, qPCR and Western blot): reduced levels
